Measured values reported in ChEMBL document CHEMBL4699575, “Discovery of First-In-Class Potent and Selective Tropomyosin Receptor Kinase Degraders” (J Med Chem, 2020).
The source made the active and inactive calls. The calls are words filed in the database; no cut-off is given here.

What was measured:
[1] = biological target: High affinity nerve growth factor receptor (Homo sapiens, UniProt P04629); experiment: Binding affinity to human partial length TRKA expressed in mammalian expression system by kinomescan method
High affinity nerve growth factor receptor, sequence (P04629 whole entry, the tested form may be a part): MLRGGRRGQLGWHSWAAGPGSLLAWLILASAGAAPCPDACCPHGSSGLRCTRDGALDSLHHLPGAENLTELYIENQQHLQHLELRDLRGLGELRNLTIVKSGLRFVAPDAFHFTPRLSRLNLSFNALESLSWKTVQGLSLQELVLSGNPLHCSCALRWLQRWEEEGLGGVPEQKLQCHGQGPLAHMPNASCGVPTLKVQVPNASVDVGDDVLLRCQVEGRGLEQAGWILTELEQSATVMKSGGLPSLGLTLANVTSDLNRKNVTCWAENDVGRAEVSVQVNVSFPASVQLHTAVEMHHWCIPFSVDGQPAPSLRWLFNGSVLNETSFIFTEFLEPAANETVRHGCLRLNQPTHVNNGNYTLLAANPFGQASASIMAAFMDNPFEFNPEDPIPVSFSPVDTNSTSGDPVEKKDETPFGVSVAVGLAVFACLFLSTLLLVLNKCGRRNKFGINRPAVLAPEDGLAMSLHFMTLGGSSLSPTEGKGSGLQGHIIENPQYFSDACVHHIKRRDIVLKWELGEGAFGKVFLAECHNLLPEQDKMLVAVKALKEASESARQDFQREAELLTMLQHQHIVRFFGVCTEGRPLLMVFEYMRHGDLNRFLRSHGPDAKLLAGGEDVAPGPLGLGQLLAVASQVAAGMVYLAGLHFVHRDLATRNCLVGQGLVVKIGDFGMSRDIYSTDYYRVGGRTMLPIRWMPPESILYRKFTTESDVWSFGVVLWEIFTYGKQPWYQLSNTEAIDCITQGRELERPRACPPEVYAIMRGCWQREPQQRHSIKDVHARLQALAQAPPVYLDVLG

KM12 [2] = experiment: Induction of CRBN-mediated TMP3-TRKA (unknown origin) fusion protein degradation expressed in human KM12 cells at 10 nM for 6 hrs by immunoblot analysis relative to control; assay type: cell-based
KM12 [3] = experiment: Induction of CRBN-mediated TMP3-TRKA (unknown origin) fusion protein degradation expressed in human KM12 cells at 1 nM for 6 hrs by immunoblot analysis relative to control; assay type: cell-based
KM12 [4] = experiment: Induction of CRBN-mediated TMP3-TRKA (unknown origin) fusion protein degradation expressed in human KM12 cells at 0.1 nM for 6 hrs by immunoblot analysis relative to control; assay type: cell-based
[5] = biological target: BDNF/NT-3 growth factors receptor (Homo sapiens, UniProt Q16620); experiment: Binding affinity to human partial length TRKB expressed in mammalian expression system by kinomescan method
BDNF/NT-3 growth factors receptor, sequence (Q16620 whole entry): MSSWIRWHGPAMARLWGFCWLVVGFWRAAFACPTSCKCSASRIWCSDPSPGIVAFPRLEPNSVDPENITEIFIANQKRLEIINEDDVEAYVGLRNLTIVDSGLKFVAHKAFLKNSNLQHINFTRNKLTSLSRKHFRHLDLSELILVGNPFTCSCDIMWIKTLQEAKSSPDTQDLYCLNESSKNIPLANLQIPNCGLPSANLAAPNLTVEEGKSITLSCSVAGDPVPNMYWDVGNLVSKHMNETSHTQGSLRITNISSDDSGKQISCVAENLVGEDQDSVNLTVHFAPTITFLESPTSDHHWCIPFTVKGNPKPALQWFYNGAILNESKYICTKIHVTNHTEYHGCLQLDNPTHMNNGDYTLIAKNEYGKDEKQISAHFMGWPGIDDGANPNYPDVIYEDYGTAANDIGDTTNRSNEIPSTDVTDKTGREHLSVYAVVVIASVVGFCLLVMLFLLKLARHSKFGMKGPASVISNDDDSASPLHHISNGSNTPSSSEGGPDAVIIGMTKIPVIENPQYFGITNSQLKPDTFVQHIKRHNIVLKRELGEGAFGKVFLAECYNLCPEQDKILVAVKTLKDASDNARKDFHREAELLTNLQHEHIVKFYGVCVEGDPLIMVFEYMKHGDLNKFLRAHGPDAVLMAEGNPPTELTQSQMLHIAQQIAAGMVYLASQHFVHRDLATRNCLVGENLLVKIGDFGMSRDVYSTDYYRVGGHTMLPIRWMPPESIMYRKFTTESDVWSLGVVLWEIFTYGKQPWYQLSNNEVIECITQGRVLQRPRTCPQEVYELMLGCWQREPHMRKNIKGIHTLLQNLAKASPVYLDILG

[6] = Binding affinity to human partial length TRKC expressed in mammalian expression system by kinomescan method
[7] = Induction of CRBN-mediated TMP3-TRKA (unknown origin) fusion protein degradation expressed in human KM12 cells for 6 hrs by immunoblot analysis; assay type: cell-based; conditions: KM12, 6 h
[8] = (§1) Induction of CRBN-mediated TMP3-TRKA (unknown origin) fusion protein degradation expressed in human KM12 cells assessed as inhibition of PLC-gamma1 phosphorylation for 6 hrs by immunoblot analysis; assay type: cell-based; conditions: KM12, 6 h
KM12 [9] = experiment: as §1; assay type: cell-based
KM12 [10] = experiment: Induction of CRBN-mediated TMP3-TRKA (unknown origin) fusion protein degradation expressed in human KM12 cells at 30 nM for 6 hrs by immunoblot analysis; assay type: cell-based
KM12 [11] = experiment: Effect on GSPT1 expression in human KM12 cells at 0.04 to 30 nM for 6 hrs by immunoblot analysis; assay type: functional, cell-based; conditions: dose nM 0.04-30, time 6.0 hrs
KM12 [12] = experiment: Induction of CRBN-mediated TMP3-TRKA (unknown origin) fusion protein degradation expressed in human KM12 cells at 10 nM for 0.3 hrs by immunoblot analysis; assay type: cell-based
KM12 [13] = experiment: Induction of CRBN-mediated TMP3-TRKA (unknown origin) fusion protein degradation expressed in human KM12 cells assessed as inhibition of PLC-gamma1 phosphorylation at 10 nM for 0.3 hrs by immunoblot analysis; assay type: cell-based
KM12 [14] = experiment: Induction of CRBN-mediated TMP3-TRKA (unknown origin) fusion protein degradation expressed in human KM12 cells at 10 nM for 4 hrs by immunoblot analysis; assay type: cell-based
KM12 [15] = experiment: Induction of CRBN-mediated TMP3-TRKA (unknown origin) fusion protein degradation expressed in human KM12 cells assessed as inhibition of PLC-gamma1 phosphorylation at 10 nM for 4 hrs by immunoblot analysis; assay type: cell-based
[16] = biological target: T1, Protein cereblon/High affinity nerve growth factor receptor (Homo sapiens, UniProt P04629+Q96SW2); experiment: Induction of CRBN-mediated TRKA degradation in human HEL cells for 6 hrs by immunoblot analysis; assay type: cell-based
Target sequence in this assay (P04629 whole entry, the tested form may be a part): as the sequence (P04629 whole entry, the tested form may be a part) above
Target sequence in this assay (Q96SW2 whole entry, the tested form may be a part): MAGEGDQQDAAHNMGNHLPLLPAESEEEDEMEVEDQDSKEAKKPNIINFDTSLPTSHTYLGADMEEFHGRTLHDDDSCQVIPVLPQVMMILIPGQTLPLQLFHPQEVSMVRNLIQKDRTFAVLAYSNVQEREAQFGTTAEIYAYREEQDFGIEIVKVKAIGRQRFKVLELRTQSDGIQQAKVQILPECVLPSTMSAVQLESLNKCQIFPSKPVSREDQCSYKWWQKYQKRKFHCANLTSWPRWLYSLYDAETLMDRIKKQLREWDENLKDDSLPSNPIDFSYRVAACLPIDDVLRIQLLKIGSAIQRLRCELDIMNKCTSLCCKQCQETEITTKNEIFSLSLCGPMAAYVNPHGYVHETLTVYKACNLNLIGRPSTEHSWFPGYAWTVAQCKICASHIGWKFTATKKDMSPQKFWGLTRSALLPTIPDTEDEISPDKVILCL

KM12 [17] = experiment: Induction of CRBN-mediated AGBL4-TRKB (unknown origin) fusion protein degradation expressed in human KM12 cells at 0.7 to 500 nM for 6 hrs by immunoblot analysis; assay type: cell-based; conditions: dose nM 0.7-500, time 6.0 hrs
KM12 [18] = experiment: Induction of CRBN-mediated ETV6-TRKC (unknown origin) fusion protein degradation expressed in human KM12 cells at 0.7 to 500 nM for 6 hrs by immunoblot analysis; assay type: cell-based; conditions: dose nM 0.7-500, time 6.0 hrs
KM12 [19] = experiment: Induction of CRBN-mediated TMP3-TRKA (unknown origin) fusion protein degradation expressed in human KM12 cells at 10 nM for 6 hrs pretreated with pomalidomide by immunoblot analysis; assay type: cell-based
KM12 [20] = experiment: Induction of CRBN-mediated TMP3-TRKA (unknown origin) fusion protein degradation expressed in human KM12 cells at 10 nM for 6 hrs pretreated with MG-132 by immunoblot analysis; assay type: cell-based
KM12 [21] = experiment: Induction of CRBN-mediated TMP3-TRKA (unknown origin) fusion protein degradation expressed in human KM12 cells at 10 nM for 6 hrs pretreated with bortezomib by immunoblot analysis; assay type: cell-based
KM12 [22] = experiment: Induction of CRBN-mediated TMP3-TRKA (unknown origin) fusion protein degradation expressed in human KM12 cells at 10 nM for 6 hrs pretreated with MLN4924 by immunoblot analysis; assay type: cell-based
[23] = biological target: T2, Tropomyosin alpha-3 chain/High affinity nerve growth factor receptor (Homo sapiens) (UniProt P04629+P06753); experiment: Induction of TMP3-TRKA (unknown origin) fusion protein degradation expressed in human KM12 cells transfected with siCRBN-1 at 0.1 to 10 nM for 6 hrs by immunoblot analysis; assay type: cell-based; conditions: dose nM 0.1-10, time 6.0 hrs
T2 sequence (P04629 whole entry, looked up, the tested form may be a part): as the sequence (P04629 whole entry, the tested form may be a part) above
T2 sequence (P06753 whole entry, looked up, the tested form may be a part): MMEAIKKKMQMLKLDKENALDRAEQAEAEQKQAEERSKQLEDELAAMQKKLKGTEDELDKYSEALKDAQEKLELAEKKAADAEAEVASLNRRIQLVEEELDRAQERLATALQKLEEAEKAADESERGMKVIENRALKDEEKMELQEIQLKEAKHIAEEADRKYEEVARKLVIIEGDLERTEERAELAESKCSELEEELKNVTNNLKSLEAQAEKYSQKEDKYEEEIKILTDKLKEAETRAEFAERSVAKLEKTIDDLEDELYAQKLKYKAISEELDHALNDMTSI

[24] = biological target: T2, Tropomyosin alpha-3 chain/High affinity nerve growth factor receptor (Homo sapiens); experiment: Induction of TMP3-TRKA (unknown origin) fusion protein degradation expressed in human KM12 cells transfected with siCRBN-2 at 0.1 to 10 nM for 6 hrs by immunoblot analysis; assay type: cell-based; conditions: dose nM 0.1-10, time 6.0 hrs
KM12 [25] = experiment: Antiproliferative activity against human KM12 cells assessed as reduction in cell viability measured after 3 days by Celltiter-Glo assay; assay type: functional, cell-based; conditions: KM12, 72 h
[26] = Cmax in ICR mouse at 10 mg/kg, ip measured for 1 hr; assay type: ADME, organism-based; set-up: route intraperitoneal, dose 10 mg/kg, time 1 hrs; conditions: in vivo
[27] = Plasma concentration in ICR mouse at 10 mg/kg, ip measured at 8 hrs; assay type: ADME, organism-based
[28] = Half life in ICR mouse at 10 mg/kg, ip measured upto 8 hrs; assay type: ADME, organism-based; conditions: in vivo
KM12 [29] = experiment: Effect on GSPT1 expression in human KM12 cells at 30 nM for 6 hrs by immunoblot analysis; assay type: functional, cell-based
[30] = biological target: T1, Protein cereblon/High affinity nerve growth factor receptor; experiment: Induction of CRBN-mediated TRKA degradation in human HEL cells at 30 nM for 6 hrs by immunoblot analysis; assay type: cell-based
Target sequence in this assay (P04629 33-796 limits assumed): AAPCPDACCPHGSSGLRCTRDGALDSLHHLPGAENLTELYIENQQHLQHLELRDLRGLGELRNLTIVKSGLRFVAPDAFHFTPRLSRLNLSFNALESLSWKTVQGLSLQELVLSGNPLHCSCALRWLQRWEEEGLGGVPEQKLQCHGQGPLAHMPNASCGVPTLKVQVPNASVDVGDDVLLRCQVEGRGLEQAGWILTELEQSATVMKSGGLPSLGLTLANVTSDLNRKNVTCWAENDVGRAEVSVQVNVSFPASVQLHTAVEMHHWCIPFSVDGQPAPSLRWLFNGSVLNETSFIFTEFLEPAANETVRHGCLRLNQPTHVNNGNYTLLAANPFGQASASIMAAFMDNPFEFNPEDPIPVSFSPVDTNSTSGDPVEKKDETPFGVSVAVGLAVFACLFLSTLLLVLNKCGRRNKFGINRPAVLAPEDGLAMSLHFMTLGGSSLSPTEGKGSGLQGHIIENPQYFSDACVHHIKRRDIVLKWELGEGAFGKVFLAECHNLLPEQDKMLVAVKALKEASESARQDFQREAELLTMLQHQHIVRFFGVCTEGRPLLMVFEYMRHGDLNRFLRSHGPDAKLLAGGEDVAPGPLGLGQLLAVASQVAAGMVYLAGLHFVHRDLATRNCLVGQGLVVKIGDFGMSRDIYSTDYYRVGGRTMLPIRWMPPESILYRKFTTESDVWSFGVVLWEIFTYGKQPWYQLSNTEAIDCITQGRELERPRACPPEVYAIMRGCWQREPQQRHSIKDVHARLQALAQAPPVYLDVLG
Target sequence in this assay (Q96SW2 whole entry partner, the tested form may be a part): as the sequence (Q96SW2 whole entry, the tested form may be a part) above

Compound `O=C1CCC(N2C(=O)c3cccc(NCCCCCC(=O)N4CCN(c5cccc(-c6cnc7ccc(N8CCC[C@@H]8c8cccc(F)c8)nn67)n5)CC4)c3C2=O)C(=O)N1` (some centres undefined) has a Kd [1] of 2.1 nM, an Activity (KM12 [2]) of 96% and an Activity (KM12 [3]) of 65%. The Activity (KM12 [4]) was 18%, the Kd [5] was 112 nM and the Kd [6] was 18 nM. For the same compound, the DC50 [7] was 0.48 nM, the IC50 [8] was 30 nM and the inhibition (KM12 [9]) was “Dose-dependent effect”. For the same compound, the Activity (KM12 [10]) was “Active”, the Activity (KM12 [11]) was “inactive” and the Activity (KM12 [12]) was “Active”. The inhibition (KM12 [13]) was “Active”, the Activity (KM12 [14]) was “Active” and the inhibition (KM12 [15]) was “Active”. The DC50 [16] was 1.26 nM, the Activity (KM12 [17]) was “Active” and the Activity (KM12 [18]) was “Active”. The Activity (KM12 [19]) was “inactive”, the Activity (KM12 [20]) was “inactive” and the Activity (KM12 [21]) was “inactive”. The Activity (KM12 [22]) was “inactive”, the Activity [23] was “inactive” and the Activity [24] was “inactive”. It also gave an IC50 (KM12 [25]) of 5.4 nM, a Cmax [26] of 2050 nM and a concentration at 8 h [27] of 14.8 nM. For the same compound, the half-life [28] was 54 min.
`O=C1CCC(N2C(=O)c3cccc(NCCCCC(=O)N4CCN(c5cccc(-c6cnc7ccc(N8CCC[C@@H]8c8cccc(F)c8)nn67)n5)CC4)c3C2=O)C(=O)N1` (some centres undefined) gave an Activity (KM12 [2]) of 93%, an Activity (KM12 [3]) of 69% and an Activity (KM12 [4]) of 20%.
`O=C1CCC(N2C(=O)c3cccc(NCCCC(=O)N4CCN(c5cccc(-c6cnc7ccc(N8CCC[C@@H]8c8cccc(F)c8)nn67)n5)CC4)c3C2=O)C(=O)N1` (some centres undefined) gave an Activity (KM12 [2]) of 94%, an Activity (KM12 [3]) of 63% and an Activity (KM12 [4]) of 12%.
`O=C1CCC(N2C(=O)c3cccc(NCCOCCC(=O)N4CCN(c5cccc(-c6cnc7ccc(N8CCC[C@@H]8c8cccc(F)c8)nn67)n5)CC4)c3C2=O)C(=O)N1` (some centres undefined) showed a Kd [1] of 1 nM, an Activity (KM12 [2]) of 96% and an Activity (KM12 [3]) of 82%. For the same compound, the Activity (KM12 [4]) was 46%, the Kd [5] was 28 nM and the Kd [6] was 4.2 nM. The DC50 [7] was 0.36 nM, the IC50 [8] was 30 nM and the inhibition (KM12 [9]) was “Dose-dependent effect”. For the same compound, the Activity (KM12 [10]) was “Active”, the Activity (KM12 [11]) was “inactive” and the Activity (KM12 [12]) was “Active”. For the same compound, the inhibition (KM12 [13]) was “Active”, the Activity (KM12 [14]) was “Active” and the inhibition (KM12 [15]) was “Active”. For the same compound, the DC50 [16] was 2.23 nM, the Activity (KM12 [17]) was “Active” and the Activity (KM12 [18]) was “Active”. The Activity (KM12 [19]) was “inactive”, the Activity (KM12 [20]) was “inactive” and the Activity (KM12 [21]) was “inactive”. For the same compound, the Activity (KM12 [22]) was “inactive”, the IC50 (KM12 [25]) was 52 nM and the Cmax [26] was 1640 nM. It also gave a concentration at 8 h [27] of 12.4 nM.
Work on `O=C1CCC(N2C(=O)c3cccc(NCCCCCCCC(=O)N4CCN(c5cccc(-c6cnc7ccc(N8CCC[C@@H]8c8cccc(F)c8)nn67)n5)CC4)c3C2=O)C(=O)N1` (some centres undefined) yielded an Activity (KM12 [2]) of 83%, an Activity (KM12 [3]) of 21% and an Activity (KM12 [4]) of 20%.
Work on `O=C1CCC(N2C(=O)c3cccc(NCCOCCOCCC(=O)N4CCN(c5cccc(-c6cnc7ccc(N8CCC[C@@H]8c8cccc(F)c8)nn67)n5)CC4)c3C2=O)C(=O)N1` (some centres undefined) yielded an Activity (KM12 [2]) of 95%, an Activity (KM12 [3]) of 56% and an Activity (KM12 [4]) of 30%.
In the case of `CN1C(=O)CCC(N2C(=O)c3cccc(NCCOCCC(=O)N4CCN(c5cccc(-c6cnc7ccc(N8CCC[C@@H]8c8cccc(F)c8)nn67)n5)CC4)c3C2=O)C1=O` (some centres undefined), the Kd [1] is reported as 0.88 nM, the Kd [5] is reported as 59.8 nM and the Kd [6] is reported as 4.8 nM. The Activity (KM12 [29]) was “inactive”, the Activity [30] was “inactive” and the IC50 (KM12 [25]) was 28 nM.
Work on `O=C1CCC(N2C(=O)c3cccc(NCCC(=O)N4CCN(c5cccc(-c6cnc7ccc(N8CCC[C@@H]8c8cccc(F)c8)nn67)n5)CC4)c3C2=O)C(=O)N1` (some centres undefined) yielded an Activity (KM12 [2]) of 65%, an Activity (KM12 [3]) of 15% and an Activity (KM12 [4]) of 9%.
Work on `O=C1CCC(N2C(=O)c3cccc(NCCOCCOCCOCCOCCC(=O)N4CCN(c5cccc(-c6cnc7ccc(N8CCC[C@@H]8c8cccc(F)c8)nn67)n5)CC4)c3C2=O)C(=O)N1` (some centres undefined) yielded an Activity (KM12 [2]) of 91%, an Activity (KM12 [3]) of 40% and an Activity (KM12 [4]) of 22%.
`O=C1CCC(N2C(=O)c3cccc(NCCCCCCC(=O)N4CCN(c5cccc(-c6cnc7ccc(N8CCC[C@@H]8c8cccc(F)c8)nn67)n5)CC4)c3C2=O)C(=O)N1` (some centres undefined) gave an Activity (KM12 [2]) of 90%, an Activity (KM12 [3]) of 23% and an Activity (KM12 [4]) of 21%.
With `O=C1CCC(N2C(=O)c3cccc(NCCOCCOCCOCCC(=O)N4CCN(c5cccc(-c6cnc7ccc(N8CCC[C@@H]8c8cccc(F)c8)nn67)n5)CC4)c3C2=O)C(=O)N1` (some centres undefined) the Activity (KM12 [2]) was 86%, the Activity (KM12 [3]) was 28% and the Activity (KM12 [4]) was 22%.
`CN1C(=O)CCC(N2C(=O)c3cccc(NCCCCCC(=O)N4CCN(c5cccc(-c6cnc7ccc(N8CCC[C@@H]8c8cccc(F)c8)nn67)n5)CC4)c3C2=O)C1=O` (some centres undefined) showed a Kd [1] of 2.9 nM, a Kd [5] of 187 nM and a Kd [6] of 24.2 nM. The Activity (KM12 [29]) was “inactive”, the Activity [30] was “inactive” and the IC50 (KM12 [25]) was 2.9 nM.
In the case of `OC1CCN(c2cc(-c3cccc(-c4cnc5ccc(N6CCC[C@@H]6c6cccc(F)c6)nn45)n3)ccn2)CC1`, the Kd [1] is reported as 0.81 nM, the Activity (KM12 [2]) is reported as 52% and the Activity (KM12 [3]) is reported as 16%. It also gave an Activity (KM12 [4]) of 6%, a Kd [5] of 22.7 nM and a Kd [6] of 5.4 nM. The IC50 (KM12 [25]) was 16 nM.
For `O=C1CCC(N2C(=O)c3cccc(NCC(=O)N4CCN(c5cccc(-c6cnc7ccc(N8CCC[C@@H]8c8cccc(F)c8)nn67)n5)CC4)c3C2=O)C(=O)N1` (some centres undefined), the Activity (KM12 [2]) was 93%, the Activity (KM12 [3]) was 45% and the Activity (KM12 [4]) was 15%.
